Test results as given in publication PMC5507552 (Bioconjugate chemistry, 2017).

Tested on: human HEp2 cells
Conditions: read-out: Dark toxicity (IC50), overnight incubation, Cell Titer Blue, from dose-response curves

COc1ccc(C2=C3C=C(Cl)C(c4ccc(OC)cc4)=[N+]3[B-](F)(F)n3c2cc(Cl)c3-c2ccc(NC(=S)NCCOCCOCCOCCC(=O)N[C@@H](CC(C)C)C(=O)N[C@@H](C)C(=O)N[C@@H](CCCNC(=N)N)C(=O)N[C@@H](CC(C)C)C(=O)N[C@@H](CC(C)C)C(=O)N[C@H](C(N)=O)[C@@H](C)O)cc2)cc1 [Conjugate 8, BODIPY-3PEG-LARLLT-NH2]
IC50: 98 µM
